According to patent US20070128217A1 (priority 2003, published 2007):

Assays:
[1] = tested on: control sera (pooled serum of ten healthy LUMC hospital workers; commercial negative donor pooled serum from the Dutch bloodbank); type: binding, human; design: Binding of Control serum LUMC to linear peptides / Binding of Control serum Blood-bank to linear peptides / Binding of Control serum LUMC to looped peptides / Binding of Control Serum Blood-Bank to Looped peptides / Binding of Control serum LUMC to linear peptides of the protein M of SARS-CoV Urbani / Binding of Control serum Blood-bank to linear peptides of the protein M of SARS-CoV Urbani / Binding of Control serum LUMC to looped peptides of the protein M of SARS-CoV Urbani / Binding of Control Serum Blood-Bank to Looped peptides of the protein M of SARS-CoV Urbani: unit not given here
[2] = tested on: rabbit serum obtained by immunizing a rabbit with the SARS-CoV strain Frankfurt 1; type: binding; design: Binding of a rabbit serum to linear peptides / Binding of a rabbit serum to looped peptides / Rabbit serum linear peptides / Rabbit serum looped peptides / Binding of a rabbit serum to linear peptides of protein N of SARS-CoV Urbani (Rabbit serum linear peptides) / Binding of a rabbit serum to looped/cyclic peptides of protein N of SARS-CoV Urbani (Rabbit serum looped peptides): unit not given here

| Sequence | Binding of Control Serum Blood-Bank to Looped peptides of the protein M of SARS-CoV Urbani [1] | Binding of Control serum Blood-bank to linear peptides of the protein M of SARS-CoV Urbani [1] | Binding of Control serum LUMC to linear peptides of the protein M of SARS-CoV Urbani [1] | Binding of Control serum LUMC to looped peptides of the protein M of SARS-CoV Urbani [1] | Rabbit serum linear peptides [2] | Rabbit serum looped peptides [2] | Binding of Control Serum Blood-Bank to Looped peptides [1] | Binding of Control serum Blood-bank to linear peptides [1] | Binding of Control serum LUMC to linear peptides [1] | Binding of Control serum LUMC to looped peptides [1] | Binding of a rabbit serum to linear peptides [2] | Binding of a rabbit serum to looped peptides [2] |
| --- | --- | --- | --- | --- | --- | --- | --- | --- | --- | --- | --- | --- |
| YKLNTDHAGSNDNIA | 0.6 | 0.6 | 0.7 | 0.6 | 0.1 | 0.1 | – | – | – | – | – | – |
| YQIGGYSEDRHSGVK | – | – | – | – | – | – | 0.3 | 0.3 | 0.4 | 0.3 | 0.1 | 0.5 |
| YSRVKNLNSSEGVPD | – | – | – | – | – | – | 0.4 | 0.6 | 0.8 | 0.8 | 0.3 | 0.0 |
| YVYSRVKNLNSSEGV | – | – | – | – | – | – | 0.9 | 0.8 | 0.6 | 0.8 | 1.2 | 0.5 |
| YYKLGASQRVGTDSG | 0.7 | 1.0 | 0.8 | 0.7 | 0.1 | 0.0 | – | – | – | – | – | – |
